Experimental data reported in patent US9169213B2, “Method of weight management” (Arena Pharmaceuticals, Inc., priority 2012, dated 2015).
Several values for one entry are separate records, joined by “and”; a condition that tells them apart may be missing. Equal values may be shown once.

Columns and labels:
Assay type in all cases: in vivo, human
[1] = BLOOM-DM (APD356-010) Phase 3 study: Week 52 outcomes by Week 12/Week 24 responder status, patients with type 2 diabetes mellitus; conditions: for Diastolic BP, Week 52 Change from Baseline Mean (SE) / HbA1c, Week 52 Change from Baseline Mean (SE) / Heart Rate, Week 52 Change from Baseline Mean (SE) / Systolic BP, Week 52 Change from Baseline Mean (SE): With T2DM
Procedure: APD356-010 (BLOOM-DM) was a 52-week, placebo controlled study that evaluated the effect of two lorcaserin doses (10 mg BID and 10 mg QD) on categorical and total weight loss with concurrent behavior modification in 604 patients with type 2 diabetes mellitus managed with oral hypoglycemic agents. Randomization to the 10 mg once daily group was halted by protocol amendment in order to accelerate enrollment, resulting in final group sizes of 253 (placebo), 95 (lorcaserin QD) and 256 (lorcaserin BID).
(§1) An analysis of early weight loss was performed, at each visit after baseline through Week 24, as a predictor of ultimate weight loss success, as defined by achieving at least about 5% weight loss at 52 weeks, or at least about 10% weight loss at 52 weeks.
Table 3 and Table 4 provide the sensitivity, specificity, positive predicted value (PPV) and negative predictive value (NPV) at Weeks 12 and 24 for at least about 5% and at least about 10% weight loss at Week 52 in different studies. The rounded percent weight loss at Week 12 for at least 5% and at least about 10% weight loss at Week 52 are about 5% and about 6%, respectively. Using the about 6% weight loss at Week 12 as a criterion enhances the PPV for both about 5% and about 10% categorical weight loss at Week 52, but at the expense of excluding about 10% and about 4% more of the about 5% categorical responders at Week 52 in patients without and with diabetes, respectively, based upon NPV. The rounded optimal thresholds at Week 24 for at least about 5% and at least about 10% weight loss at Week 52 are about 6% and about 9%, respectively. Using the 9% weight loss criterion at Week 24 enhances the PPV for both about 5% and about 10% categorical weight loss at Week 52, but at the expense of excluding about 19% and about 9% more of the about 5% categorical responders at Week 52 in patients without and with diabetes, respectively, based upon NPV. As described below, if at least about a 5% weight loss criterion is applied, patients achieving this milestone will achieve an average of about 10.8% weight loss in patients without diabetes and about 9.1% weight loss in patients with diabetes at Week 52.
Tables 6 and 7, below, present weight loss, vital sign, and glycemic changes at Week 52 in pooled patients without diabetes, patients with T2DM, and pooled patients with impaired fasting glucose (IFG; ≧100 mg/dL) who were Week 12 responders.

[2] = Pooled BLOOM and BLOSSOM Phase 3 studies: Week 52 outcomes by Week 12/Week 24 responder status, patients without T2DM; conditions: for Diastolic BP, Week 52 Change from Baseline Mean (SE) / HbA1c, Week 52 Change from Baseline Mean (SE) / Heart Rate, Week 52 Change from Baseline Mean (SE) / Systolic BP, Week 52 Change from Baseline Mean (SE): Without T2DM
Procedure: APD356-009 (“BLOOM”) was a 104-week, placebo controlled study that assessed the safety and efficacy of lorcaserin 10 mg BID in overweight and obese patients, with concurrent behavior modification. The primary efficacy objective during Year 1 was to evaluate weight loss; the primary objective during Year 2 was to assess the ability of lorcaserin to maintain body weight loss that was achieved during Year 1. At study start, each patient received randomized, double blind treatment assignments for Year 1 and for Year 2 (all patients were given a new randomization number for Year 2 to assure that patients and study personnel remained blinded to treatment assignments). All patients assigned to placebo during Year 1 (50% of randomized population) remained on placebo in Year 2. Patients assigned to lorcaserin during Year 1 were randomly assigned to stay on lorcaserin during Year 2 (⅔ of Year 1 lorcaserin patients) or to switch to placebo (⅓ of Year 1 lorcaserin patients).
APD356-011 (“BLOSSOM”) was a 52-week, placebo controlled study that evaluated the effect of two lorcaserin doses (10 mg BID and 10 mg QD) on categorical and total weight loss with concurrent behavior modification. Patients were randomized in a ratio of 2:1:2 to lorcaserin 10 mg BID, 10 mg QD, or placebo.
as §1

[3] = Lorcaserin pivotal phase 3 clinical trial program (NDA summary)
Source text: The NDA submission is based on an extensive data package from lorcaserin's clinical development program that includes 18 clinical trials totaling 8,576 patients. […] About two-thirds of patients achieved at least 5% weight loss and over one-third achieved at least 10% weight loss. On average, patients lost 17 to 18 pounds or about 8% of their weight. Secondary endpoints, including body composition, lipids, cardiovascular risk factors and glycemic parameters improved compared to placebo. In addition, heart rate and blood pressure went down. […] Lorcaserin improved quality of life, and there was no signal for depression or suicidal ideation. The only adverse event that exceeded the placebo rate by 5% was generally mild or moderate, transient headache. Based on a normal BMI of 25, patients in the first phase 3 trial lost about one-third of their excess body weight. The average weight loss was 35 pounds or 16% of body weight for the top quartile of patients in the second phase 3 trial.

[4] = Week 12 Non-responder (<5%), Completers Population, 10 mg BID
[5] = Week 12 Non-responder (<5%), MITT with LOCF, 10 mg BID
[6] = Week 12 Responder (≧5% weight loss), MITT with LOCF, 10 mg BID
[7] = Week 12 Responder (≧5%), Completers Population, 10 mg BID
[8] = Week 12 Nonresponder (5%), 10 mg BID
[9] = Week 12 Responder (5%), 10 mg BID
[10] = of patients with observed Week 12 data, type 2 diabetes, 10 mg BID
[11] = Week 12 Responder (≧5% weight loss), Completers Population, 10 mg BID
[12] = Week 12 responders without diabetes
[13] = of patients with observed Week 12 data, without diabetes, 10 mg BID, listed as Lorcaserin

SMILES: C[C@H]1CNCCc2ccc(Cl)cc21 [lorcaserin, (R)-8-chloro-1-methyl-2,3,4,5-tetrahydro-1H-3-benzazepine]
- Week 52 Weight 5% Responder [1, 4]: 29.0%
- Week 52 Weight 10% Responder [1, 4]: 10.0%
- Week 52 Weight Mean (SE) Change from Baseline, kg [1, 4]: −3.45 (0.44) kg
- Week 52 Weight Mean (SE) Percent Change from Baseline, % [1, 4]: −3.36 (0.42) %
- Week 52 Weight 5% Responder [1, 5]: 25.2%
- Week 52 Weight 10% Responder [1, 5]: 8.6%
- Week 52 Weight Mean (SE) Change from Baseline, kg [1, 5]: −3.20 (0.36) kg
- Week 52 Weight Mean (SE) Percent Change from Baseline, % [1, 5]: −3.13 (0.35) %
- Week 52 Weight 5% Responder [1, 6]: 71% and 70.5%
- Week 52 Weight 10% Responder [1, 6]: 36% and 35.9%
- Week 52 Weight Mean (SE) Change from Baseline, kg [1, 6]: −9.26 (0.77) kg
- Week 52 Weight Mean (SE) Percent Change from Baseline, % [1, 6]: −9.07 (0.70) %
- Week 52 Weight 5% Responder [1, 7]: 70.8%
- Week 52 Weight 10% Responder [1, 7]: 40.0%
- Week 52 Weight Mean (SE) Change from Baseline, kg [1, 7]: −9.77 (0.89) kg
- Week 52 Weight Mean (SE) Percent Change from Baseline, % [1, 7]: −9.49 (0.80) %
- change in HbA1c at Week 52 ([1]; Week 12 non-responders with type 2 diabetes): −0.84%
- Week 52 reduction in diastolic blood pressure ([1]; Week 12 responders with T2DM): 1.9 mmHg
- Week 52 reduction in heart rate ([1]; Week 12 responders with T2DM): 3.2 BPM
- Week 52 reduction in systolic blood pressure ([1]; Week 12 responders with T2DM): 2.6 mmHg
- A1C W52 Change ([1]; Week 12 responders, patients with T2DM, 10 mg BID): −1.2%
- Diastolic BP, Week 52 Change from Baseline Mean (SE) [1, 8]: −1.07 (0.86)
- HbA1c, Week 52 Change from Baseline Mean (SE) [1, 8]: −0.84 (0.09)
- Heart Rate, Week 52 Change from Baseline Mean (SE) [1, 8]: −0.87 (0.73)
- Systolic BP, Week 52 Change from Baseline Mean (SE) [1, 8]: −0.55 (1.11)
- Diastolic BP, Week 52 Change from Baseline Mean (SE) [1, 9]: −1.91 (1.01)
- HbA1c, Week 52 Change from Baseline Mean (SE) [1, 9]: −1.20 (0.11)
- Heart Rate, Week 52 Change from Baseline Mean (SE) [1, 9]: −3.24 (1.21)
- Systolic BP, Week 52 Change from Baseline Mean (SE) [1, 9]: −2.59 (1.73)
- Week 12 Non-Responder, percentage of patients [1, 10]: 139 (64.1%)
- Week 12 Responder (at least 5% weight loss at Week 12), percentage of patients [1, 10]: 35.9%
- Week 12 Responder (at least 5% weight loss at Week 12), percentage of patients ([1]; of patients with observed Week 12 data, type 2 diabetes, 10 mg BID, listed as Lorcaserin): 78 (35.9%)
- average weight loss at Week 52 ([1]; patients with diabetes achieving at least about 5% weight loss at Week 12): about 9.1%
- Week 52 Weight 5% Responder [2, 4]: 35.9%
- Week 52 Weight 10% Responder [2, 4]: 7.4%
- Week 52 Weight Mean (SE) Change from Baseline, kg [2, 4]: −3.50 (0.18) kg
- Week 52 Weight Mean (SE) Percent Change from Baseline, % [2, 4]: −3.44 (0.18) %
- Week 52 Weight 10% Responder [2, 5]: 4.7%
- Week 52 Weight Mean (SE) Change from Baseline, kg [2, 5]: −2.76 (0.12) kg
- Week 52 Weight Mean (SE) Percent Change from Baseline, % [2, 5]: −2.73 (0.12) %
- Week 52 Weight 5% Responder [2, 11]: 85.8%
- Week 52 Weight 10% Responder [2, 11]: 55.9%
- Week 52 Weight Mean (SE) Change from Baseline, kg [2, 11]: −11.31 (0.21) kg
- Week 52 Weight Mean (SE) Percent Change from Baseline, % [2, 11]: −11.52 (0.21) %
- Week 52 Weight 10% Responder [2, 6]: 49.8%
- Week 52 Weight Mean (SE) Change from Baseline, kg [2, 6]: −10.63 (0.18) kg
- Week 52 Weight Mean (SE) Percent Change from Baseline, % [2, 6]: −10.84 (0.18) %
- Week 52 reduction in diastolic blood pressure [2, 12]: 2.5 mmHg
- Week 52 reduction in heart rate [2, 12]: 2.5 BPM
- Week 52 reduction in systolic blood pressure [2, 12]: 3.4 mmHg
- Diastolic BP, Week 52 Change from Baseline Mean (SE) [2, 8]: −1.02 (0.25)
- HbA1c, Week 52 Change from Baseline Mean (SE) [2, 8]: −0.05 (0.01)
- Heart Rate, Week 52 Change from Baseline Mean (SE) [2, 8]: −0.29 (0.26)
- Systolic BP, Week 52 Change from Baseline Mean (SE) [2, 8]: −0.82 (0.34)
- Diastolic BP, Week 52 Change from Baseline Mean (SE) [2, 9]: −2.52 (0.25)
- HbA1c, Week 52 Change from Baseline Mean (SE) [2, 9]: −0.18 (0.01)
- Heart Rate, Week 52 Change from Baseline Mean (SE) [2, 9]: −2.45 (0.26)
- Systolic BP, Week 52 Change from Baseline Mean (SE) [2, 9]: −3.39 (0.34)
- Week 12 Non-Responder (<5% wt loss), percentage of patients ([2]; of patients with observed Week 12 data, without diabetes, 10 mg BID): 1,286/2,537(50.7%)
- Week 12 Non-Responder (<5% wt loss), percentage of patients [2, 13]: 1286 (50.7%)
- Week 12 Responder (at least 5% weight loss at Week 12), percentage of patients [2, 13]: 1251 (49.3%)
- average weight loss at Week 52 ([2]; patients without diabetes achieving at least about 5% weight loss at Week 12): about 10.8%
- risk of cardiac valvulopathy ([3]; phase 3 program): did not increase
- average weight lost, of their weight ([3]; pivotal phase 3 program): about 8%
- average weight loss of body weight, top quartile of patients ([3]; second phase 3 trial): 16%
- average weight loss, top quartile of patients ([3]; second phase 3 trial): 35 pounds
